One assay concerns Aβtotal. Nature of the assay: In vivo efficacy B-1a/B-2a: brain soluble Aβtotal in non-transgenic rodents, ELISA. Set-up: species or system mouse. The conditions noted are these: dose 30 mg/kg oral dosing, brain soluble fraction, untreated animals (Ctrl) set at 100; for response vs control in vivo at 30 mg/kg: Mus musculus, po, 4 h, read-out: Aβtotal (% vs Ctrl)_Mean; for Aβtotal (% vs Ctrl)_Mean: 30 mg/kg. From the text: (§1) To determine whether acute administration of an Aβ42 lowering agent would reduce Aβ42 levels in vivo, non-transgenic rodents, e.g. mice or rats were used. Animals treated with the Aβ42 lowering agent were examined and compared to those untreated or treated with vehicle and brain levels of soluble Aβ42 and total Aβ were quantitated by standard techniques, for example, using ELISA. Treatment periods varied from hours (h) to days and were adjusted based on the results of the Aβ42 lowering once a time course of onset of effect could be established.
(§2) A typical protocol for measuring Aβ42 lowering in vivo is shown but it is only one of many variations that could be used to optimize the levels of detectable Aβ. For example, Aβ42 lowering compounds were formulated in 20% of Captisol® (a sulfobutyl ether of β-cyclodextrin) in water or 20% hydroxypropyl β cyclodextrin. The Aβ42 lowering agents were administered as a single oral dose or by any acceptable route of administration to overnight fasted animals. After 4 h, the animals were sacrificed and Aβ42 levels were analysed.
(§3) Blood was collected by decapitation and exsanguinations in EDTA-treated collection tubes. Blood was centrifuged at 1900 g for 10 minutes (min) at 4° C. and the plasma recovered and flash frozen for later analysis. The brain was removed from the cranium and hindbrain. The cerebellum was removed and the left and right hemisphere were separated. The left hemisphere was stored at −18° C. for quantitative analysis of test compound levels. The right hemisphere was rinsed with phosphate-buffered saline (PBS) buffer and immediately frozen on dry ice and stored at −80° C. until homogenization for biochemical assays.
(§4) Mouse brains from non-transgenic animals were resuspended in 8 volumes of 0.4% DEA (diethylamine)/50 mM NaCl containing protease inhibitors (Roche-11873580001 or 04693159001) per gram of tissue, e.g. for 0.158 g brain, add 1.264 mL of 0.4% DEA. All samples were homogenized in the FastPrep-24 system (MP Biomedicals) using lysing matrix D (MPBio #6913-100) at 6 m/s for 20 seconds. Homogenates were centrifuged at 20800×g for 5 min and supernatants collected. Supernatants were centrifuged at 221.300×g for 50 min. The resulting high speed supernatants were then transferred to fresh eppendorf tubes. Nine parts of supernatant were neutralized with 1 part 0.5 M Tris-HCl pH 6.8 and used to quantify Aβtotal and Aβ42.
(§5) To quantify the amount of Aβtotal and Aβ42 in the soluble fraction of the brain homogenates, Enzyme-Linked-Immunosorbent-Assays were used. Briefly, the standards (a dilution of synthetic Aβ1-40 and Aβ1-42, Bachem) were prepared in 1.5 mL Eppendorf tube in Ultraculture, with final concentrations ranging from 10000 to 0.3 pg/mL. The samples and standards were co-incubated with HRPO-labelled N-terminal antibody JRF/rAμ/2 for Aβ42 detection and with the biotinylated mid-domain antibody 4G8 for Aβtotal detection. 50 μl of conjugate/sample or conjugate/standards mixtures were then added to the antibody-coated plate (the capture antibodies selectively recognize the C-terminal end of Aβ42, antibody JRF/cAβ42/26, for Aβ42 detection and the N-terminus of AB, antibody JRF/rAβ/2, for Aβtotal detection). The plate was allowed to incubate overnight at 4° C. in order to allow formation of the antibody-amyloid complex. Following this incubation and subsequent wash steps the ELISA for Aβ42 quantification was finished by addition of Quanta Blu fluorogenic peroxidase substrate according to the manufacturer's instructions (Pierce Corp., Rockford, Ill.). A reading was performed after 10 to 15 min (excitation 320 nm/emission 420 nm).
For Aβtotal detection, a Streptavidine-Peroxidase-Conjugate was added, followed 60 min later by an additional wash step and addition of Quanta Blu fluorogenic peroxidase substrate according to the manufacturer's instructions (Pierce Corp., Rockford, Ill.). A reading was performed after 10 to 15 min (excitation 320 nm/emission 420 nm). […]

A further assay deals with Aβ42. The experiment in a line: In vivo efficacy B-1a: brain soluble Aβ42 in non-transgenic rodents, ELISA. The conditions noted are these: dose 30 mg/kg oral dosing, brain soluble fraction, untreated animals (Ctrl) set at 100; for response vs control in vivo at 30 mg/kg: Mus musculus, po, read-out: Aβ42 (% vs Ctrl)_Mean; for Aβ42 (% vs Ctrl)_Mean: 30 mg/kg. Set-up: species or system mouse.
From the text: as §1, §2, §3, §4, §5
In this model a Aβ42 lowering compared to untreated animals would be advantageous, in particular a Aβ42 lowering with at least 10%, more in particular a Aβ42 lowering with at least 20%.
The results are shown in Table 4 (dose 30 mg/kg oral dosing) (value for untreated animals as control (Ctrl) was set at 100): […]
(In general: ELISA stands for enzyme-linked immunosorbent assay.)

These results are taken from patent US9115143B2, “Substituted indole derivatives as gamma secretase modulators” (Janssen Pharmaceuticals, Inc., priority 2011, dated 2015).

Each structure is given as a SMILES string.

On to `Cc1cc(F)ccc1C1OCCn2cc(-c3cc4nc(-c5cnn(C)c5)ccc4[nH]3)nc21` (single isomer, unassigned) [Compound 102, 8-(4-fluoro-2-methylphenyl)-5,6-dihydro-2-[5-(1-methyl-1H-pyrazol-4-yl)-1H-pyrrolo[3,2-b]pyridin-2-yl]-8H-imidazo[2,1-c][1,4]oxazine], for which the response vs control in vivo at 30 mg/kg in the assay with Aβtotal came out at 121%; with Aβ42, 98%.
Regarding `Cc1cc(F)ccc1C1CCCn2nc(-c3cc4cc(C#N)ccc4[nH]3)nc21` (stereo not shown) [Compound 10, 2-[8-(4-fluoro-2-methylphenyl)-5,6,7,8-tetrahydro[1,2,4]triazolo[1,5-a]pyridin-2-yl]-1H-indole-5-carbonitrile], the response vs control in vivo at 30 mg/kg was 105% in the assay on Aβtotal and 72% with Aβ42.
In the same order, the values of `COc1c(C#N)ccc2[nH]c(-c3nc4n(n3)CCOC4c3c(F)cccc3Cl)cc12` (single isomer, unassigned) [Compound 117, 2-[8-(2-chloro-6-fluorophenyl)-5,6-dihydro-8H-[1,2,4]triazolo[5,1-c][1,4]oxazin-2-yl]-4-methoxy-1H-indole-5-carbonitrile] are 103% and 63%.
For the compound `Cc1cc(-c2ccc3[nH]c(-c4nc5n(n4)CCCC5c4ccccc4C)cc3n2)ccn1` (stereo not shown) [Compound 6, 5,6,7,8-tetrahydro-8-(2-methylphenyl)-2-[5-(2-methyl-4-pyridinyl)-1H-pyrrolo[3,2-b]pyridin-2-yl]-[1,2,4]triazolo[1,5-a]pyridine], the response vs control in vivo at 30 mg/kg with Aβtotal was found to be 87%; in the assay with Aβ42, 79%.
In the case of `COc1c(-c2cnn(C)c2)ccc2[nH]c(-c3cn4c(n3)C(c3ccc(F)cc3C)OCC4)cc12` (stereo not shown) [Compound 96, 8-(4-fluoro-2-methylphenyl)-5,6-dihydro-2-[4-methoxy-5-(1-methyl-1H-pyrazol-4-yl)-1H-indol-2-yl]-8H-imidazo[2,1-c][1,4]oxazine], the response vs control in vivo at 30 mg/kg was 92% in the assay on Aβtotal and 55% in the assay with Aβ42.
`Cc1cn(-c2ccc3[nH]c(-c4nc5n(n4)CCCC5c4ccc(F)cc4C)cc3c2)cn1` (stereo not shown) [Compound 73, 8-(4-fluoro-2-methylphenyl)-5,6,7,8-tetrahydro-2-[5-(4-methyl-1H-imidazol-1-yl)-1H-indol-2-yl]-[1,2,4]triazolo[1,5-a]pyridine]: the figures for the response vs control in vivo at 30 mg/kg in the assay with Aβtotal and in the assay on Aβ42 were 80% and 43%, respectively.
In the same order, the values of `Cc1cn(-c2ccc3[nH]c(-c4nc5n(n4)CCOC5c4ccccc4C(F)(F)F)cc3c2)cn1` (stereo not shown) [Compound 37, 5,6-dihydro-2-[5-(4-methyl-1H-imidazol-1-yl)-1H-indol-2-yl]-8-[2-(trifluoromethyl)phenyl]-8H-[1,2,4]triazolo[5,1-c][1,4]oxazine] are 93% and 64%.
Consider `Cc1cc(F)ccc1C1CCCn2cc(-c3cc4cc(C#N)ccc4[nH]3)nc21` (stereo not shown) [Compound 4, 2-[8-(4-fluoro-2-methylphenyl)-5,6,7,8-tetrahydroimidazo[1,2-a]pyridin-2-yl]-1H-indole-5-carbonitrile], for which the “Aβtotal (% vs Ctrl)_Mean” value with Aβtotal is recorded as 82 % vs Ctrl. Further, the “Aβ42 (% vs Ctrl)_Mean” value with Aβ42 is given as 63 % vs Ctrl.
Consider `Cc1cn(-c2ccc3[nH]c(-c4nc5n(n4)CCCC5c4ccc(F)cc4C)nc3c2)cn1` (stereo not shown) [Compound 176, 8-(4-fluoro-2-methylphenyl)-5,6,7,8-tetrahydro-2-[5-(4-methyl-1H-imidazol-1-yl)-1H-benzimidazol-2-yl]-[1,2,4]triazolo[1,5-a]pyridine], for which the figures for the response vs control in vivo at 30 mg/kg in the assay with Aβtotal and in the assay on Aβ42 were 101% and 93%, respectively.
In the case of `Cc1cc(F)ccc1C1OCCn2cc(-c3cc4cc(-c5cnn(C)c5)ccc4[nH]3)nc21` (stereo not shown) [Compound 99, 8-(4-fluoro-2-methylphenyl)-5,6-dihydro-2-[5-(1-methyl-1H-pyrazol-4-yl)-1H-indol-2-yl]-8H-imidazo[2,1-c][1,4]oxazine], the response vs control in vivo at 30 mg/kg in the assay with Aβtotal worked out at 115%; in the assay on Aβ42, 63%.
In the same order, the values of `N#Cc1ccc2[nH]c(-c3nc4n(n3)CCCC4c3ccccc3C(F)(F)F)cc2c1` (stereo not shown) [Compound 18, 2-[5,6,7,8-tetrahydro-8-[2-(trifluoromethyl)phenyl][1,2,4]triazolo[1,5-a]pyridin-2-yl]-1H-indole-5-carbonitrile] are 102% and 88%.
Take `Cc1cn(-c2ccc3[nH]c(-c4nc5n(n4)CCCC5c4ccccc4C(F)(F)F)cc3c2)cn1` (stereo not shown) [Compound 8, 5,6,7,8-tetrahydro-2-[5-(4-methyl-1H-imidazol-1-yl)-1H-indol-2-yl]-8-[2-(trifluoromethyl)phenyl]-[1,2,4]triazolo[1,5-a]pyridine]: the values for the response vs control in vivo at 30 mg/kg in the assay with Aβtotal and in the assay on Aβ42 were 86% and 41%, respectively.
As for `Cc1cc(F)ccc1C1CCCn2nc(-c3cc4cc(C#N)ccc4[nH]3)nc21` (stereo not shown) [Compound 9, 2-[8-(4-fluoro-2-methylphenyl)-5,6,7,8-tetrahydro[1,2,4]triazolo[1,5-a]pyridin-2-yl]-1H-indole-5-carbonitrile], the “Aβtotal (% vs Ctrl)_Mean” value in the assay on Aβtotal is given as 97 % vs Ctrl. For the same compound, the “Aβ42 (% vs Ctrl)_Mean” value in the assay on Aβ42 turned out to be 66 % vs Ctrl.
Take `Cc1cc(F)ccc1C1CCCn2nc(-c3cc4nc(-c5cnn(C)c5)ccc4[nH]3)nc21` (stereo not shown) [Compound 69, 8-(4-fluoro-2-methylphenyl)-5,6,7,8-tetrahydro-2-[5-(1-methyl-1H-pyrazol-4-yl)-1H-pyrrolo[3,2-b]pyridin-2-yl]-[1,2,4]triazolo[1,5-a]pyridine]: the response vs control in vivo at 30 mg/kg with Aβtotal came to 122%; in the assay on Aβ42 it was 83%.
Consider `Cc1cn(-c2cc3cc(-c4nc5n(n4)CCCC5c4ccccc4C)[nH]c3cn2)cn1` (stereo not shown) [Compound 30, 5,6,7,8-tetrahydro-2-[5-(4-methyl-1H-imidazol-1-yl)-1H-pyrrolo[2,3-c]pyridin-2-yl]-8-(2-methylphenyl)-[1,2,4]triazolo[1,5-a]pyridine], for which the values for the response vs control in vivo at 30 mg/kg with Aβtotal and with Aβ42 were 97% and 91%, respectively.
With `Cc1cc(F)ccc1C1CCCn2cc(-c3cc4cc(C#N)ccc4[nH]3)nc21` (stereo not shown) [Compound 63, 2-[8-(4-fluoro-2-methylphenyl)-5,6,7,8-tetrahydroimidazo[1,2-a]pyridin-2-yl]-1H-indole-5-carbonitrile], the “Aβtotal (% vs Ctrl)_Mean” value in the assay on Aβtotal stood at 121 % vs Ctrl. Besides, in the assay with Aβ42, the “Aβ42 (% vs Ctrl)_Mean” value turned out to be 121 % vs Ctrl.
Take `COc1c(C#N)ccc2[nH]c(-c3nc4n(n3)CCOC4c3ccccc3C(F)(F)F)cc12` (stereo not shown) [Compound 55, 2-[5,6-dihydro-8-[2-(trifluoromethyl)phenyl]-8H-[1,2,4]triazolo[5,1-c][1,4]oxazin-2-yl]-4-methoxy-1H-indole-5-carbonitrile]: the response vs control in vivo at 30 mg/kg was 111% with Aβtotal and 55% in the assay with Aβ42.
